Article PMC5161585 (Nature, 2016)
Entries after “also recorded” stand apart in the source; their conditions may differ.

Columns and labels:
human μOR [1] = biological target: T1, human μOR (Homo sapiens, UniProt P35372); assay: β-arrestin-2 recruitment by BRET in HEK-293T cells; type: cell-based
κOR [2] = biological target: T2, κOR (Homo sapiens, UniProt P41145); assay: Gi/o Glosensor assay at κOR; type: cell-based
C57BL/6J mice [3] = assay: Hotplate assay subcategorized into affective and reflexive responses; type: in vivo, mouse; settings: for analgesia on affective versus reflexive component of pain: morphine 10 mg/kg, PZM21 20 mg/kg
δOR [4] = biological target: T3, δOR (Homo sapiens, UniProt P41143); assay: Radioligand binding at δOR; settings: read-out: δOR Ki
T3 sequence (P41143 whole entry): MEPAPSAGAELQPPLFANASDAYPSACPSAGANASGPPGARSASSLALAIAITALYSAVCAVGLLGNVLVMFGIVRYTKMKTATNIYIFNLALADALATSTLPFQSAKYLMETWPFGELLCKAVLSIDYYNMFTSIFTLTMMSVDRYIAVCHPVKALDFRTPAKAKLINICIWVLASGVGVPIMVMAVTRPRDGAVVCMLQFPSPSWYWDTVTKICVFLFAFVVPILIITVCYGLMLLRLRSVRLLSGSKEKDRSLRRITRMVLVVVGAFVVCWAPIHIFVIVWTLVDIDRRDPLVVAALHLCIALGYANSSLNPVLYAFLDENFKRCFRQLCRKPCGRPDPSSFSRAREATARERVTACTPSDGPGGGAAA

Oprm1−/− mice = assay: Hotplate assay in μOR knockout mice; type: in vivo, mouse; settings: morphine 10 mg/kg, PZM21 20 mg/kg, 30 min
δOR [5] = biological target: T3, δOR; assay: Gi/o Glosensor assay at δOR; type: cell-based
mice [6] = assay: Open field locomotor response; type: in vivo, mouse; settings: morphine 10 mg/kg, PZM21 20 mg/kg
C57BL/6J mice [7] = assay: Mouse tail-flick assay; settings: in vivo
C57BL/6J mice [8] = assay: Mouse hotplate analgesia assay; settings: 15 min after the highest dose tested (40 mg/kg), subcutaneous
mice [9] = assay: Formalin injection nociception assay; type: in vivo, mouse; settings: morphine 10 mg/kg, PZM21 40 mg/kg
SSTR4 = SSTR4 (Homo sapiens, UniProt P31391); assay: Gi/o Glosensor assay measuring SSTR4 activation; type: cell-based
Chain of SSTR4 (P31391 whole entry, species assumed): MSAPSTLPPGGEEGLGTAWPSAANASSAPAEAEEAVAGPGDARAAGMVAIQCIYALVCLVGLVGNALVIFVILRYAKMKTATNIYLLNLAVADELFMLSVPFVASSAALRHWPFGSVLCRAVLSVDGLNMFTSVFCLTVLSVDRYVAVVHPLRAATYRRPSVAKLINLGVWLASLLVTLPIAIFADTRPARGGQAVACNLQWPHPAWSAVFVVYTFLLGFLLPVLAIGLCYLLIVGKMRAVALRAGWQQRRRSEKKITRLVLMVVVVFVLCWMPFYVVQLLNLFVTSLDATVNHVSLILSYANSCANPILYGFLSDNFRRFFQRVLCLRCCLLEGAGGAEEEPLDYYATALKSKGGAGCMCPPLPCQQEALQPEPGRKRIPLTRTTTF

mice [10] = assay: Catalepsy bar test; type: in vivo, mouse; settings: PZM21 20 mg/kg, morphine 10 mg/kg
mice [11] = assay: Conditioned place preference; type: in vivo, mouse; settings: morphine 10 mg/kg, PZM21 20 mg/kg, TRV130 1.2 mg/kg
nociceptin receptor = nociceptin receptor (Homo sapiens, UniProt P41146); assay: Gi/o Glosensor assay at nociceptin receptor; type: cell-based
Chain of nociceptin receptor (P41146 whole entry, species assumed): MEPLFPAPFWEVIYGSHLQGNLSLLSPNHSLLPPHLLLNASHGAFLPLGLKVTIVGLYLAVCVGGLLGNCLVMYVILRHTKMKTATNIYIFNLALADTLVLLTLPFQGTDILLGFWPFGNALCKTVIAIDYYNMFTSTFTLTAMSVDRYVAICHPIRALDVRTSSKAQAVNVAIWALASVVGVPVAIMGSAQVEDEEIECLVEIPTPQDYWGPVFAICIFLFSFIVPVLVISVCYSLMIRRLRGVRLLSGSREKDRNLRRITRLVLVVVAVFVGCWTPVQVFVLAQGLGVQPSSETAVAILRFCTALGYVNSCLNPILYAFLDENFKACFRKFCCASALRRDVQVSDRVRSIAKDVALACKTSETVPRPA

κOR [12] = biological target: T2, κOR; assay: Radioligand binding at κOR; settings: read-out: κOR Ki
320 non-olfactory GPCRs = assay: PRESTO-Tango GPCRome β-arrestin recruitment screen; type: cell-based; settings: 10 μM screen, hits re-tested in full dose–response
mice [13] = assay: Accumulated faecal boli quantification; type: in vivo, mouse; settings: morphine 10 mg/kg, PZM21 20 mg/kg
mice [14] = assay: Whole-body mouse plethysmography; type: in vivo; settings: equi-analgesic doses: PZM21 40 mg/kg, TRV130 1.2 mg/kg, morphine 10 mg/kg
[15] = Metabolism in mouse liver microsomes; type: in vitro ADME; settings: over one hour, 80 μM
[16] = Pharmacokinetics of PZM21, serum and brain levels; type: in vivo, mouse; settings: 20 mg/kg subcutaneous, mice
human μOR [17] = biological target: T1, human μOR; assay: BRET-based; type: cell-based; settings: read-out: EC50 in CAMYEL-based Gi/o signalling assay
human μOR [18] = biological target: T1, human μOR; assay: Receptor internalization, PathHunter GPCR internalization assay in U2OS cells; type: cell-based

T1 sequence (P35372 whole entry): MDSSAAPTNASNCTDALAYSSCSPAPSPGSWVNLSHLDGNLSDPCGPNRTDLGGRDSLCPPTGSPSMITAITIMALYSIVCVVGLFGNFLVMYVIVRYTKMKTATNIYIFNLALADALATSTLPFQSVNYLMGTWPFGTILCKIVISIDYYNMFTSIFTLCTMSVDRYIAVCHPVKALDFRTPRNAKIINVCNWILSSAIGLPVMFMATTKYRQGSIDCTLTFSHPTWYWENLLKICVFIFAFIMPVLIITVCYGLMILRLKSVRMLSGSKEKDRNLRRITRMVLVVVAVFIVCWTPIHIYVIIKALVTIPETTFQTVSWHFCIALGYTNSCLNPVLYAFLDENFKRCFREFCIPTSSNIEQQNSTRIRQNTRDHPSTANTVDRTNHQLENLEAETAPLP
T2 sequence (P41145 whole entry): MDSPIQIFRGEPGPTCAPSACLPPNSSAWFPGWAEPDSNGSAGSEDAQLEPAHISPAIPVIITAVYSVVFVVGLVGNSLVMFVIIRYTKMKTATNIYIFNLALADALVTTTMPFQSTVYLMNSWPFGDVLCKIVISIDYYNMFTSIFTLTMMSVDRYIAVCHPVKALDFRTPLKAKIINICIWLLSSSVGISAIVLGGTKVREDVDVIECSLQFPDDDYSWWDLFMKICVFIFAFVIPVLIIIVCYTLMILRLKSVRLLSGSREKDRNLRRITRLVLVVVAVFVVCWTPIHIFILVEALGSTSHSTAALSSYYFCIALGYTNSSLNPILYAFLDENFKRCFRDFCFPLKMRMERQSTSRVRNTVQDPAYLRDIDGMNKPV

SMILES: COC(=O)[C@@H]1C[C@H](OC(=O)c2ccccc2)C(=O)[C@H]2[C@@]1(C)CC[C@H]1C(=O)O[C@H](c3ccoc3)C[C@]21C [Herkinorin, herkinorin]
- arrestin recruitment in BRET assay in the absence of GRK2 overexpression (human μOR [1]): robustly recruits arrestin
- κOR agonist activity (in words) (κOR [2]): potent agonists of the κOR

SMILES: C[C@@H](Cc1ccsc1)NC(=O)NC[C@H](Cc1ccc(O)cc1)N(C)C [PZM21]
- duration of analgesia (C57BL/6J mice [3]; hotplate): up to 180 min
- analgesia on affective versus reflexive component of pain (C57BL/6J mice [3]): solely confers analgesia to the affective component of pain; also recorded: only modulates the attending (affective) component
- Ki (δOR [4]): 506 nM
- analgesic response in hotplate assay in μOR knockout mice (Oprm1−/− mice): completely ablates the observed analgesic response
- δOR Gi/o (Glosensor) Emax (δOR [5]): 78%
- EC50 (δOR [5]; read-out: δOR Gi/o (Glosensor) EC50): 1900 nM
- effect on locomotion in open-field assay (mice [6]): no apparent effect on locomotion versus vehicle
- analgesic effect in tail-flick assay (C57BL/6J mice [7]): no analgesic effect
- per cent maximal possible effect (% MPE), hotplate (C57BL/6J mice [8]): 87%
- analgesia in formalin injection nociception assay (mice [9]): active in a formalin injection nociception assay
- SSTR4 activation, cAMP inhibition (SSTR4): does not show a dose-dependent change in cAMP inhibition
- cataleptic effect (mice [10]): minimal cataleptic effect compared to morphine
- conditioned place preference (mice [11]): does not induce a conditioned place preference response
- nociceptin receptor agonist activity (in words) (nociceptin receptor): no detectable κOR or nociceptin receptor agonist activity
- Ki (κOR [12]): 18 nM
- agonism at other GPCRs (320 non-olfactory GPCRs): no potent activity was confirmed with a full dose–response experiment
- constipating effect (accumulated faecal boli) (mice [13]): constipating effect is substantially less than morphine
- effect on respiration frequency (mice [14]): almost undistinguishable from vehicle
- κOR agonist activity (in words) (κOR [2]): no detectable κOR or nociceptin receptor agonist activity
- metabolism by mouse liver microsomes [15]: 8%
- peak level in brain tissue [16]: 197 ng per g
- concomitant serum concentration ([16]; at brain peak): 1,253 ng/ml

SMILES: CN(C)[C@H](CNC(=O)NCCc1ccccc1)Cc1ccc(O)cc1 [PZM22]
- EC50 (human μOR [17]): 1.8 nM

SMILES: COc1ccsc1CNCC[C@@]1(c2ccccn2)CCOC2(CCCC2)C1 [TRV130]
- conditioned place preference (mice [11]): not significant relative to vehicle
- μOR internalization (human μOR [18]): much decreased receptor internalization versus DAMGO and even morphine
- effect on respiration frequency (mice [14]): significantly depresses respiration at 15 min
- κOR agonist activity (in words) (κOR [2]): potent agonists of the κOR

SMILES: CN1CC[C@]23c4c5ccc(O)c4O[C@H]2[C@@H](O)C=C[C@H]3[C@H]1C5 [morphine, reference compound]
- analgesia on affective versus reflexive component of pain (C57BL/6J mice [3]): induces changes in both behaviours
- analgesia in formalin injection nociception assay (mice [9]): sustained analgesia
- conditioned place preference (mice [11]): Place preference is induced
